# Assay results taken from PMC10455339, “Combining the Peptide RWQWRWQWR and an Ethanolic Extract of Bidens pilosa Enhances the Activity against Sensitive and Resistant Candida albicans and C. auris Strains” (Journal of Fungi, 2023).
# Read-outs that look alike come from different tables or passages of the source.
# How the values were obtained:
# C. albicans 256-PUJ-HUSI = assay: Antifungal activity (MIC/MFC), broth microdilution; format: cell-based, Candida albicans; details: Candida albicans, 256PUJHUSI, FLC-resistant isolate, n = 3; for MIC: CLSI M27-A4 modified, RPMI 1640, 37 °C, 48 h, MIC = 50% growth inhibition, read-out: MIC; for MFC: subculture on SDA 24 h 37 °C, MFC = eliminates 100% of growth, read-out: MFC
# Experimental: (§1) For the determination of the MICs, the guidelines of the Clinical Laboratory Standards Institute (CLSI BMD-M27-A4) were used with some modifications. Serial dilutions were made, for peptides from 6.25 to 200 µg/mL and for extracts from 31.2 to 2000 µg/mL, with RPMI 1640 medium in a 96-well microdilution plate (100 µL), and then 100 µL of the adjusted inoculum (0.5–2.5 × 10^3 cells/mL) was added and incubated at 37 °C, and visual and spectrophotometric reading (595 nm) was performed at 48 h. Controls: growth control in RPMI or DMSO, control with a known antifungal: FLC, C. albicans SC5314 (1 µg/mL), C. albicans 256 (64 µg/mL), C. auris 435 (8 µg/mL), and C. auris 537 (128 µg/mL), sterility controls correspond to RPMI medium and SS. The MIC was defined as the minimum concentration of peptide or extract that inhibited 50% of growth compared to the control. To determine the minimal fungicidal concentration (MFC), from the concentrations where no growth was observed, including the controls, a subculture was made on SDA and incubated for 24 h at 37 °C. The MFC was defined as the minimum concentration of peptide or extract that eliminated 100% of the growth compared to the control (n = 3).
# C. albicans SC5314 [1] = assay: microbe, parasite or virus in culture; format: cell-based, Candida albicans; details: Candida albicans, SC5314, n = 3; for MIC: CLSI M27-A4 modified, RPMI 1640, 37 °C, 48 h, MIC = 50% growth inhibition, read-out: MIC; for MFC: subculture on SDA 24 h 37 °C, MFC = eliminates 100% of growth, read-out: MFC
# Experimental: as §1
# C. auris 435-PUJ-HUSI = assay: Antifungal activity (MIC/MFC), broth microdilution; format: cell-based, Candida auris; details: Candidozyma auris, 435PUJHUSI, FLC-sensitive isolate, n = 3; for MIC: CLSI M27-A4 modified, RPMI 1640, 37 °C, 48 h, MIC = 50% growth inhibition, read-out: MIC; for MFC: subculture on SDA 24 h 37 °C, MFC = eliminates 100% of growth, read-out: MFC
# Experimental: as §1
# C. auris 537-PUJ-HUSI = assay: Antifungal activity (MIC/MFC), broth microdilution; format: cell-based, Candida auris; details: Candidozyma auris, 537PUJHUSI, FLC- and AmB-resistant isolate, n = 3; for MIC: CLSI M27-A4 modified, RPMI 1640, 37 °C, 48 h, MIC = 50% growth inhibition, read-out: MIC; for MFC: subculture on SDA 24 h 37 °C, MFC = eliminates 100% of growth, read-out: MFC
# Experimental: as §1
# C. auris 537 [2] = tested on: C. auris 537
# Experimental: (§2) This was performed using the checkerboard test, with some adjustments. Briefly, peptide or extract with FLC, peptide with extract, and extract, peptide, and FLC (final concentrations: 0, 0.06, 0.12, 0.25, 0.50, 1, and 2 times the MIC) were mixed. […] The fractional inhibitory concentration index (FIC I) was calculated as follows: [A/MIC A] + [P/MIC P] = FIC I, where MIC A and MIC P are the MICs of the individual peptide, extract, and/or antifungal. A and P are the MICs of the same, but in combination.
# (§3) The combinations were classified as synergistic (FIC I ≤ 0.5), additive (FIC I > 0.5–1), indifferent (FIC I > 1 < 4), or antagonistic (FIC I > 4).
# C. auris 435 = tested on: C. auris 435
# Experimental: as §2, §3
# C. albicans 256 [3] = tested on: C. albicans 256
# Experimental: as §2, §3
# C. albicans SC5314 [4] = tested on: C. albicans SC5314
# Experimental: as §2, §3
# C. auris 537 [5] = details: previously published, cited from earlier work
# Experimental: (§4) Table 5 Synergy test. Combination of R-1-R with FLC against C. albicans and C. auris. | column: MICR-1-R; MICFLC; R-1-R; FLC; FIC Index; MICR-1-R/R-1-R; MICFLC/FLC || Initially, the antifungal activity of mixtures of R-1-R/FLC against the C. albicans and C. auris strains was evaluated (Table 5). […] The MIC value of FLC in C. albicans SC5314 was reduced by a factor of 2, while that in C. albicans 256 was reduced by a factor of 8.
# C. albicans 256 [6] = details: previously published, cited from earlier work
# Experimental: as §4
# C. albicans = details: cited from earlier work
# From the text: Antifungal activity of other phenolic acids, such as chlorogenic acid, has been reported against Candida spp. resistant to FLC, generating a death process similar to apoptosis.
# [7] = B. pilosa extract combined with FLC
# [8] = B. pilosa extract combined with FLC, checkerboard, 37 °C, 48 h
# [9] = B. pilosa extract, R-1-R and FLC combined
# [10] = B. pilosa extract, R-1-R and FLC combined, checkerboard, 37 °C, 48 h
# [11] = R-1-R combined with FLC, checkerboard, 37 °C, 48 h
compound,measurement,setting,value
O=C(O)/C=C/c1ccc(O)c(O)c1 [Caffeic acid],MIC,C. albicans 256-PUJ-HUSI,> 2000 µg/mL
same,MFC,C. albicans 256-PUJ-HUSI,> 2000 µg/mL
same,MIC,C. albicans SC5314 [1],> 2000 µg/mL
same,MFC,C. albicans SC5314 [1],> 2000 µg/mL
same,MIC,C. auris 435-PUJ-HUSI,> 2000 µg/mL
same,MFC,C. auris 435-PUJ-HUSI,> 2000 µg/mL
same,MIC,C. auris 537-PUJ-HUSI,> 2000 µg/mL
same,MFC,C. auris 537-PUJ-HUSI,> 2000 µg/mL
O=C(/C=C/c1ccc(O)c(O)c1)O[C@@H](C(=O)O)[C@@H](O)C(=O)O [Caftaric acid],MIC,C. albicans 256-PUJ-HUSI,> 1000 µg/mL
same,MFC,C. albicans 256-PUJ-HUSI,> 1000 µg/mL
same,MIC,C. albicans SC5314 [1],> 1000 µg/mL
same,MFC,C. albicans SC5314 [1],> 1000 µg/mL
same,MIC,C. auris 435-PUJ-HUSI,> 1000 µg/mL
same,MFC,C. auris 435-PUJ-HUSI,> 1000 µg/mL
same,MIC,C. auris 537-PUJ-HUSI,> 1000 µg/mL
same,MFC,C. auris 537-PUJ-HUSI,> 1000 µg/mL
O=C(/C=C/c1ccc(O)c(O)c1)O[C@@H]1C[C@](O)(C(=O)O)C[C@@H](O)[C@H]1O [Chlorogenic acid],MIC,C. albicans 256-PUJ-HUSI,> 1000 µg/mL
same,MFC,C. albicans 256-PUJ-HUSI,> 1000 µg/mL
same,MIC,C. albicans SC5314 [1],> 1000 µg/mL
same,MFC,C. albicans SC5314 [1],> 1000 µg/mL
same,MIC,C. auris 435-PUJ-HUSI,> 1000 µg/mL
same,MFC,C. auris 435-PUJ-HUSI,> 1000 µg/mL
same,MIC,C. auris 537-PUJ-HUSI,> 1000 µg/mL
same,MFC,C. auris 537-PUJ-HUSI,> 1000 µg/mL
"OC(Cn1cncn1)(Cn1cncn1)c1ccc(F)cc1F [FLC, fluconazole]",MIC alone/MIC in combination (factor of potentiation),C. auris 537 [2]; [7],4
same,"MIC in combination (E, FLC)",C. auris 537 [2]; [8],32 µg/mL
same,MIC alone/MIC in combination (factor of potentiation),C. auris 537 [2]; [9],16
same,"MIC in combination (E, R-1-R, FLC)",C. auris 537 [2]; [10],8 µg/mL
same,MIC alone/MIC in combination (factor of potentiation),C. auris 435; [7],1
same,"MIC in combination (E, FLC)",C. auris 435; [8],8 µg/mL
same,MIC alone/MIC in combination (factor of potentiation),C. auris 435; [9],4
same,"MIC in combination (E, R-1-R, FLC)",C. auris 435; [10],1 µg/mL
same,MIC alone/MIC in combination (factor of potentiation),C. auris 435; R-1-R combined with FLC,4
same,"MIC in combination (R-1-R, FLC)",C. auris 435; [11],2 µg/mL
same,MIC alone/MIC in combination (factor of potentiation),C. albicans 256 [3]; [7],4
same,"MIC in combination (E, FLC)",C. albicans 256 [3]; [8],32 µg/mL
same,MIC alone/MIC in combination (factor of potentiation),C. albicans 256 [3]; [9],8
same,"MIC in combination (E, R-1-R, FLC)",C. albicans 256 [3]; [10],4 µg/mL
same,MIC alone/MIC in combination (factor of potentiation),C. albicans SC5314 [4]; [7],2
same,"MIC in combination (E, FLC)",C. albicans SC5314 [4]; [8],0.125 µg/mL
same,MIC alone/MIC in combination (factor of potentiation),C. albicans SC5314 [4]; [9],8
same,"MIC in combination (E, R-1-R, FLC)",C. albicans SC5314 [4]; [10],0.06 µg/mL
same,MIC alone/MIC in combination (factor of potentiation),C. albicans SC5314 [4]; R-1-R combined with FLC,2
same,"MIC in combination (R-1-R, FLC)",C. albicans SC5314 [4]; [11],0.0625 µg/mL
same,MIC alone/MIC in combination (factor of potentiation),C. auris 537 [5]; R-1-R combined with FLC,8
same,"MIC in combination (R-1-R, FLC)",C. auris 537 [5]; R-1-R combined with FLC,8 µg/mL
same,"MIC of the agent alone (MICR-1-R, MICFLC)",C. auris 537 [5]; checkerboard R-1-R + FLC,64 µg/mL
same,MIC alone/MIC in combination (factor of potentiation),C. albicans 256 [6]; R-1-R combined with FLC,8
same,"MIC in combination (R-1-R, FLC)",C. albicans 256 [6]; R-1-R combined with FLC,4 µg/mL
same,"MIC of the agent alone (MICR-1-R, MICFLC)",C. albicans 256 [6]; checkerboard R-1-R + FLC,32 µg/mL
O=C(O)c1cc(O)c(O)c(O)c1 [Gallic acid],MIC,C. albicans 256-PUJ-HUSI,62.5 µg/mL
same,MFC,C. albicans 256-PUJ-HUSI,125 µg/mL
same,MIC,C. albicans SC5314 [1],125 µg/mL
same,MFC,C. albicans SC5314 [1],250 µg/mL
same,MIC,C. auris 435-PUJ-HUSI,125 µg/mL
same,MFC,C. auris 435-PUJ-HUSI,1000 µg/mL
same,MIC,C. auris 537-PUJ-HUSI,62.5 µg/mL
same,MFC,C. auris 537-PUJ-HUSI,1000 µg/mL
C[C@@H]1O[C@@H](OC[C@H]2O[C@@H](Oc3c(-c4ccc(O)c(O)c4)oc4cc(O)cc(O)c4c3=O)[C@H](O)[C@@H](O)[C@@H]2O)[C@H](O)[C@H](O)[C@H]1O [Rutin],MIC,C. albicans 256-PUJ-HUSI,> 2000 µg/mL
same,MFC,C. albicans 256-PUJ-HUSI,> 2000 µg/mL
same,MIC,C. albicans SC5314 [1],> 2000 µg/mL
same,MFC,C. albicans SC5314 [1],> 2000 µg/mL
same,Reported active concentration,C. albicans,1000 µg/mL
same,MIC,C. auris 435-PUJ-HUSI,> 2000 µg/mL
same,MFC,C. auris 435-PUJ-HUSI,> 2000 µg/mL
same,MIC,C. auris 537-PUJ-HUSI,> 2000 µg/mL
same,MFC,C. auris 537-PUJ-HUSI,> 2000 µg/mL
"FKCRRWQWRM [Peptide 2, short peptide derived from LfcinB, …]",MIC,C. albicans; reported against other C. albicans strains,17.3 to 17.5 µM
"FKCRRWQWRMKKLGA [LfcinB-20, short peptide derived from LfcinB, printed …]",MIC,C. albicans; reported against C. albicans strains,8 µg/mL
